{
  "source": "paper PMC9552234",
  "experiment": "amide bond formation (macrolactamization of free amino acid tripeptides containing anthranilic acid), HATU (1.2 equiv), Et3N (1.2 equiv), high dilution",
  "conditions": "10-membered ring, CH2Cl2, 3.0 mM, 0.0 °C, 2 steps",
  "data": [
    {"smiles": "CC(=O)N1c2ccccc2[C@H]2C[C@H]3C(=O)N[C@@H](C(C)C)C(=O)Nc4ccccc4C(=O)N3[C@H]21", "note": "(mixture of isomers) [endo-47 -> endo-48 (1 step, from exo/endo mixture)]", "values": [
      {"measurement": "ring closure, yield over several steps", "setting": "from CC(=O)N1c2ccccc2[C@H]2C[C@@H](C(=O)N[C@H](C(=O)Nc3ccccc3C(=O)O)C(C)C)N[C@H]21, 1.0 h", "result": 19, "unit": "%"}
    ]},
    {"smiles": "CC(=O)N1c2ccccc2[C@@H]2C[C@H]3C(=O)N[C@@H](C(C)C)C(=O)Nc4ccccc4C(=O)N3[C@@H]21", "note": "(mixture of isomers) [exo-47 -> exo-48 (1 step, from exo/endo mixture)]", "values": [
      {"measurement": "ring closure, yield over several steps", "setting": "from CC(=O)N1c2ccccc2[C@@H]2C[C@@H](C(=O)N[C@H](C(=O)Nc3ccccc3C(=O)O)C(C)C)N[C@@H]21, 1.0 h", "result": 29, "unit": "%"}
    ]},
    {"smiles": "CC(=O)n1cc(C[C@H]2NC(=O)c3ccccc3NC(=O)[C@H](C(C)C)NC2=O)c2ccccc21", "note": "[H-D-Trp(1-Ac)-Val-Abz(2)-OH]", "values": [
      {"measurement": "ring closure, yield over several steps", "setting": "from CC(=O)n1cc(C[C@@H](N)C(=O)N[C@H](C(=O)Nc2ccccc2C(=O)O)C(C)C)c2ccccc21, 1.17 h", "result": 53, "unit": "%"}
    ]},
    {"smiles": "CC(C)[C@@H]1NC(=O)[C@@H](Cc2cn(C(=O)OC(C)(C)C)c3ccccc23)NC(=O)c2ccccc2NC1=O", "note": "[H-D-Trp(1-Boc)-Val-Abz(2)-OH]", "values": [
      {"measurement": "ring closure, yield over several steps", "setting": "from CC(C)[C@H](NC(=O)[C@H](N)Cc1cn(C(=O)OC(C)(C)C)c2ccccc12)C(=O)Nc1ccccc1C(=O)O, 0.83 h", "result": 56, "unit": "%"}
    ]},
    {"smiles": "CC(=O)n1cc(C[C@@H]2NC(=O)c3ccccc3NC(=O)[C@H](C(C)C)NC2=O)c2ccccc21", "note": "[H-Trp(1-Ac)-Val-Abz(2)-OH]", "values": [
      {"measurement": "ring closure, yield over several steps", "setting": "from CC(=O)n1cc(C[C@H](N)C(=O)N[C@H](C(=O)Nc2ccccc2C(=O)O)C(C)C)c2ccccc21", "result": 0, "unit": "%"}
    ]},
    {"smiles": "C=CC(C)(C)[C@]12C[C@H]3C(=O)N[C@@H](C(C)C)C(=O)Nc4ccccc4C(=O)N3[C@H]1N(C(C)=O)c1ccccc12", "note": "[endo-69 -> L-Trp-endo-11 (slow addition; decomposition)]", "values": [
      {"measurement": "ring closure, yield over several steps", "setting": "from C=CC(C)(C)[C@]12C[C@@H](C(=O)O)N(C(=O)c3ccccc3NC(=O)[C@@H](N)C(C)C)[C@H]1N(C(C)=O)c1ccccc12", "result": 0, "unit": "%"}
    ]},
    {"smiles": "C=CC(C)(C)[C@]12C[C@H]3C(=O)N[C@@H](C(C)C)C(=O)Nc4ccccc4C(=O)N3[C@H]1N(C(C)=O)c1ccccc12", "note": "[endo-75 -> L-Trp-endo-11 (incl. Boc removal)]", "values": [
      {"measurement": "ring closure, yield over several steps", "setting": "from C=CC(C)(C)[C@]12C[C@@H](C(=O)N[C@H](C(=O)Nc3ccccc3C(=O)O)C(C)C)N[C@H]1N(C(C)=O)c1ccccc12, 2.0 h", "result": 87, "unit": "%"}
    ]},
    {"smiles": "C=CC(C)(C)[C@@]12C[C@H]3C(=O)N[C@@H](C(C)C)C(=O)Nc4ccccc4C(=O)N3[C@@H]1N(C(C)=O)c1ccccc12", "note": "[exo-69 -> L-Trp-exo-11 (slow addition; trace)]", "values": [
      {"measurement": "ring closure, yield over several steps", "setting": "from C=CC(C)(C)[C@@]12C[C@@H](C(=O)O)N(C(=O)c3ccccc3NC(=O)[C@@H](N)C(C)C)[C@@H]1N(C(C)=O)c1ccccc12", "result": 0, "unit": "%"}
    ]},
    {"smiles": "C=CC(C)(C)[C@@]12C[C@H]3C(=O)N[C@@H](C(C)C)C(=O)Nc4ccccc4C(=O)N3[C@@H]1N(C(C)=O)c1ccccc12", "note": "[exo-75 -> L-Trp-exo-11 (incl. Boc removal)]", "values": [
      {"measurement": "ring closure, yield over several steps", "setting": "from C=CC(C)(C)[C@@]12C[C@@H](C(=O)N[C@H](C(=O)Nc3ccccc3C(=O)O)C(C)C)N[C@@H]1N(C(C)=O)c1ccccc12, 1.5 h", "result": 97, "unit": "%"}
    ]}
  ]
}
